# Test results from patent US7781183B2 (priority 2003, dated 2010).
# “Also recorded” adds a separate entry of the source.
# Test system: J774A.1 cells
# Test: not given
# Type: cell-based
SMILES,protection (in words),protection
Cc1cc(N)c2cc(NC(=O)Nc3ccc4nc(C)cc(N)c4c3)ccc2n1 [NSC 12155],lower protection; also recorded: some protection,–
c1cc2cc(-c3ccc4cc(-c5ccc6oc(C7=NCCN7)cc6c5)[nH]c4c3)[nH]c2cc1C1=NCCN1 [NSC 369718],lower protection; also recorded: some protection,–
c1cc(-c2nc3cc(-c4nc5cc(C6=NCCN6)ccc5[nH]4)ccc3[nH]2)ccc1C1=NCCN1 [NSC 369721],ineffective,–
Nc1c(/C=C/c2cc3cc(C4=NCCN4)ccc3o2)[nH]c2cc(C3=NCCN3)ccc12 [NSC 357756],some protection,about 96%

# Biological target: anthrax lethal factor protease (Bacillus anthracis, UniProt P15917)
# Sequence (P15917 34-809 limits assumed): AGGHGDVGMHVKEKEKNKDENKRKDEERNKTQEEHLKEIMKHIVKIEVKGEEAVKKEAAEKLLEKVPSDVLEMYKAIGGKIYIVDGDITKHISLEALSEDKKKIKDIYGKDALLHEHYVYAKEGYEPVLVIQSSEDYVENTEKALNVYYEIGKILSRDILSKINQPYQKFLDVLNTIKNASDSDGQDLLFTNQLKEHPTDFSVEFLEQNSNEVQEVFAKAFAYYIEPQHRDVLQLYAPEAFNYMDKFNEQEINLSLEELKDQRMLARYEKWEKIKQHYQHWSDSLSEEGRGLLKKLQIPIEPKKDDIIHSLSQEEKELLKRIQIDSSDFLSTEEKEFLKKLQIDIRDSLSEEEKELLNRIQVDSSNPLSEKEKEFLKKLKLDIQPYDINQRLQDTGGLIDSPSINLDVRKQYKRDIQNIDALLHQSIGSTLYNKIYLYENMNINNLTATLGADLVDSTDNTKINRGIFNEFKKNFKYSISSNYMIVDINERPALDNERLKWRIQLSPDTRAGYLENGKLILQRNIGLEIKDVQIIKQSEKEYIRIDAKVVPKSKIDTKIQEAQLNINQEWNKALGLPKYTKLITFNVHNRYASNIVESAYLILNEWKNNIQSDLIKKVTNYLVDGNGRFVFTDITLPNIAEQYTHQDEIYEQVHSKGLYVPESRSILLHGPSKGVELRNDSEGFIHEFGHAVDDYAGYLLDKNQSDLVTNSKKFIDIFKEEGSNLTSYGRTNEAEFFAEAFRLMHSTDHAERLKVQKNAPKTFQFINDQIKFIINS
# Test: biochemical
# Type: biochemical
SMILES,Inhibition type,Ki [µM],Km(app) with inhibitor concentration,effect on the Vmax,inhibition at 20 µM [%],inhibition of LF activity (in words),Percent Inhibition
Cc1cc(N)c2cc(NC(=O)Nc3ccc4nc(C)cc(N)c4c3)ccc2n1 [NSC 12155],competitive inhibition,0.5,increased,no effect,95,strong inhibition,–
Nc1ccc(/N=N/c2ccc3cc4ccc(/N=N/c5ccc(N)nc5N)cc4nc3c2)c(N)n1 [NSC 354962],–,–,–,–,–,–,40
C(=C\c1cc2ccc(C3=NCCN3)cc2o1)/c1cc2cc(C3=NCCN3)ccc2[nH]1 [NSC 294204],–,–,–,–,–,–,84
c1cc2cc(-c3ccc(-c4cc5ccc(C6=NCCN6)cc5[nH]4)cc3)[nH]c2cc1C1=NCCN1 [NSC 317881],–,–,–,–,–,–,97
N=C(N)c1ccc(-c2[nH]c3cc(C(=N)N)ccc3c2N)cc1 [NSC 300509],–,–,–,–,–,–,46
c1cc2cc(-c3ccc4cc(-c5ccc6oc(C7=NCCN7)cc6c5)[nH]c4c3)[nH]c2cc1C1=NCCN1 [NSC 369718],–,–,–,–,90,–,–
N=C(N)c1ccc(/C=C/c2cc3cc(C(=N)N)ccc3[nH]2)cc1 [NSC 317884],–,–,–,–,–,–,95
N=C(N)c1ccc2[nH]c(/C=C/c3cc4ccc(C(=N)N)cc4o3)cc2c1 [NSC 294203],–,–,–,–,–,–,92
C(=C\c1cc2ccc(C3=NCCN3)cc2o1)/c1cc2cc(C3=NCCN3)ccc2[nH]1 [NSC 294201],–,–,–,–,–,–,88
N=C(N)c1ccc2[nH]c(/C=C/c3cc4cc(C(=N)N)ccc4o3)cc2c1 [NSC 290107],–,–,–,–,–,–,85
N=C(N)c1ccc2cc(/C=C/c3cc4ccc(C(=N)N)cc4o3)[nH]c2c1 [NSC 294200],–,–,–,–,–,–,92
N=C(N)c1ccc(Oc2ccc(-c3cc4ccc(C(=N)N)cc4[nH]3)cc2)cc1 [NSC 240898],–,–,–,–,–,–,72
N=C(N)c1ccc(N=Nc2cc(N=Nc3ccc(C(=N)N)cc3)c(O)cc2O)cc1 [NSC 359465],–,–,–,–,48,–,–
N=C(N)c1ccc(/C=C/c2cc3ccc(C(=N)N)cc3[nH]2)cc1 [NSC 317886],–,–,–,–,–,–,93
C/C(=C\c1ccc(/C=C/c2cc3ccc(C4=NCCN4)cc3[nH]2)[nH]1)C1=NCCN1 [NSC 317880],–,–,–,–,–,–,93
N=C(N)N/N=C/c1ccc(-c2cc3ccc(/C=N/NC(=N)N)cc3s2)cc1 [NSC 341909],–,–,–,–,–,–,90
C(=C\c1cc2ccc(C3=NCCN3)cc2o1)/c1cc2ccc(C3=NCCN3)cc2o1 [NSC 294494],–,–,–,–,–,–,29
O=C(Nc1ccc(C2=NCCN2)cc1)c1cc2ccc(C3=NCCN3)cc2[nH]1 [NSC 294206],–,–,–,–,–,–,56
c1cc(C2=NCCN2)ccc1Nc1ccc(-c2cc3ccc(C4=NCCN4)cc3[nH]2)cc1 [NSC 377362],–,–,–,–,33,–,–
c1cc(-c2[nH]c3cc(C4=NCCN4)ccc3c2-c2cc3ccc(C4=NCCN4)cc3[nH]2)ccc1C1=NCCN1 [NSC 341911],–,–,–,–,–,–,64
c1cc(-c2nc3cc(-c4nc5cc(C6=NCCN6)ccc5[nH]4)ccc3[nH]2)ccc1C1=NCCN1 [NSC 369721],competitive inhibition,4.2 ± 0.21,increased,no effect,90,–,–
CCOc1ccc2c(N)c3ccc(/N=N/c4ccc(N)nc4N)cc3nc2c1 [NSC 354961],–,–,–,–,–,–,95
Nc1c(/C=C/c2cc3cc(C4=NCCN4)ccc3o2)[nH]c2cc(C3=NCCN3)ccc12 [NSC 357756],competitive inhibition,4.9 ± 1.7,increased,no effect,90,–,–
